This passage reports hygroscopicity results from patent US8853259B2, “Metformin derivatives for treating diabetes and diabetes complications” (priority 2013, dated 2014).

The data set can be described thus: Hygroscopicity of the isolated solid on exposure to air. The data set is classed as physicochemical. The following applies: light yellow foamy solid from Method 1; turns into gummy residue on exposure to air. How it is done:
Method 1: Metformin free base (1.29 g, 0.010 mol) was taken in methanol (15 mL) and while stirring L-Glutamic acid (0.74 g, […]) was added as solid. Lipoic acid (1.03 g, […]) was separately dissolved in methanol (15 mL) and added to this mixture through a in-line syringe filter (to remove polymeric material, if any). The mixture was continued to stir for 30 min. […] Metformin.L-Glutamic acid.R-Lipoic acid salt (2.9 g) was obtained as light yellow foamy solid. […] The residue was suspended in acetonitrile (30 mL) and stirred for 18 h. Filtered the pale yellow solid and dried in vacuum for 16 h to get 2.32 g of 3. ^1H NMR (200 MHz, D2O) δ 1.15-2.1 (10H, m), δ 2.1-2.42 (5H, m), δ2.88 (12H, s), δ 2.95-3.12 (1H, m) δ 3.48-3.62 (2H, m); ^13C NMR (200 MHz, D2O) δc 25.86, 27.25, 28.68, 33.81, 34.14, 37.66, 38.34, 40.51, 54.95, 56.93, 158.63, 160.28, 174.80, 181.44, 183.81.

In the case of “metformin-L-glutamic acid-R (+) lipoic acid salt”, the hygroscopicity result is “high hygroscopic”.
